The assay has as its system MCH receptors. The experiment in a line: MCH receptor activity class (method not given).
Setting [1] is: class by percent of control at 10^−7 M or IC50.
The mark [2] stands for this setting: activity class per percent of control at 10^-7 M or IC50.
[3] abbreviates: class by percent of control at 10^-7 M or IC50.
The mark [4] stands for this setting: MCH receptor, class by percent of control at 10^-7 M or IC50.
The mark [5] stands for this setting: class 1-3 by percent of control at 10^-7 M or IC50.

36 compounds from patent US20050197350A1, “Novel quinoline, tetrahydroquinazoline, and pyrimidine derivatives and methods of treatment related to the use thereof” (TAISHO PHARMACEUTICAL CO., LTD., priority 2003, published 2005) can be followed below.

As for `Cc1cnc(N[C@H]2CC[C@@H](NC(=O)C[S+]([O-])c3cccc(Br)c3)CC2)nc1N(C)C` (relative stereo) [compound 2882, 2-[(3-bromophenyl)sulfinyl]-N-(cis-4-{[4-(dimethylamino)-5-methylpyrimidin-2-yl]amino}cyclohexyl)acetamide], under setting [1], the class was 1 (Class 1: The value of percent of control at 10^−7 M was less than 40% or the value of IC50 was less than 50 nM.). Same read-out and setting: with `Cc1cc(N(C)C)nc(N[C@H]2CC[C@@H](C(=O)NCc3ccccc3)CC2)n1` [compound 2798, cis-N-benzyl-4-{[4-(dimethylamino)-6-methylpyrimidin-2-yl]amino}cyclohexanecarboxamide] the figure was 2 (Class 2: The value of percent of control at 10^−7 M was from 40% to 60% or the value of IC′50 was from 50 nM to 200 nM.). The same measure, in the same setting: the figure for `Cc1cnc(NC[C@H]2CC[C@@H](NC(=O)c3cccc(C(F)(F)F)c3)CC2)nc1N(C)C` [compound 2719] is 3 (Class 3 The value of percent of control at 10^−7 M was more than 60% or the value of IC50 was more than 200 nM.).

`COc1ccc2ccccc2c1CNC[C@H]1CC[C@@H](Nc2cc(N(C)C)c3ccccc3n2)CC1` [compound 1128]: under setting [2], the class was 3 (Class 3 The value of percent of control at 10^−7 M was more than 60% or the value of IC50 was more than 200 nM.). As to `COc1ccc(Br)cc1CNC[C@H]1CC[C@@H](Nc2nccc(N(C)C)n2)CC1` [compound 1266], under setting [3], the class was 1 (Class 1: The value of percent of control at 10^−7 M was less than 40% or the value of IC50 was less than 50 nM.).

With `Cc1cccc(C)c1NC(=O)N[C@H]1CC[C@@H](Nc2cc(N(C)C)c3ccccc3n2)CC1` [compound 2090], under setting [3], the class is 3 (Class 3 The value of percent of control at 10^−7 M was more than 60% or the value of IC50 was more than 200 nM.). Take `CCC[C@H]1CC[C@H](c2ccc(NC(=S)N[C@H]3CC[C@@H](Nc4nc5c(c(N(C)C)n4)CCCC5)CC3)cc2)CC1` [compound 1943]: the class under setting [4] is given as 3 (Class 3 The value of percent of control at 10^−7 M was more than 60% or the value of IC50 was more than 200 nM.). On to `CN(C)c1cc(N[C@H]2CC[C@@H](NC(=O)c3ccc4c(c3)OCO4)CC2)nc2ccccc12` [compound 47], for which the class under setting [4] is 3 (Class 3 The value of percent of control at 10^−7 M was more than 60% or the value of IC50 was more than 200 nM.). On the same count and under the same terms, with `Cc1ccc(C(=O)N[C@H]2CC[C@@H](Nc3cc(N(C)C)c4ccccc4n3)CC2)cc1` [compound 51] the figure was 3 (Class 3 The value of percent of control at 10^−7 M was more than 60% or the value of IC50 was more than 200 nM.). On to `COc1ccc(CN[C@H]2CC[C@@H](Nc3nc4c(c(N(C)C)n3)CCCC4)CC2)c2ccccc12` [compound 1330], for which, under setting [3], the class is recorded as 3 (Class 3 The value of percent of control at 10^−7 M was more than 60% or the value of IC50 was more than 200 nM.).

Regarding `CN(C)c1nc(N[C@H]2CC[C@@H](NCc3c[nH]nc3-c3ccc(C(F)(F)F)cc3)CC2)nc2c1CCCC2` [compound 1339], the class under setting [3] is on record as 3 (Class 3 The value of percent of control at 10^−7 M was more than 60% or the value of IC50 was more than 200 nM.).

As to `COc1cccc(C(=O)N[C@H]2CC[C@@H](Nc3nc4c(c(N(C)C)n3)CCCC4)CC2)c1` [compound 456], the class under setting [5] is 1 (Class 1: The value of percent of control at 10^−7 M was less than 40% or the value of IC50 was less than 50 nM.). `Cc1cnc(N[C@H]2CC[C@@H](NC(=O)c3cccnc3Oc3cccc(C(F)(F)F)c3)CC2)nc1N(C)C` [compound 2895]: the class under setting [1] is listed as 1 (Class 1: The value of percent of control at 10^−7 M was less than 40% or the value of IC50 was less than 50 nM.). As for `CCc1cccc(NC(=S)N[C@H]2CC[C@@H](Nc3nc4c(c(N(C)C)n3)CCCC4)CC2)c1` [compound 2042], the class under setting [4] is given as 3 (Class 3 The value of percent of control at 10^−7 M was more than 60% or the value of IC50 was more than 200 nM.). As to `Cc1cc(C)c(NC(=O)N[C@H]2CC[C@@H](Nc3nccc(N(C)C)n3)CC2)c(C)c1` [compound 2187, N-(cis-4-{[4-(dimethylamino)pyrimidin-2-yl]amino}cyclohexyl)-N′-mesitylurea], the class under setting [3] was 2 (Class 2: The value of percent of control at 10^−7 M was from 40% to 60% or the value of IC′50 was from 50 nM to 200 nM.). On to `CCSc1ncccc1C(=O)N[C@H]1CC[C@@H](Nc2nccc(N(C)C)n2)CC1` [compound 254], for which, under setting [3], the class is reported as 3 (Class 3 The value of percent of control at 10^−7 M was more than 60% or the value of IC50 was more than 200 nM.). As to `COc1cc(CNC[C@H]2CC[C@@H](Nc3cc(N(C)C)c4ccccc4n3)CC2)cc(OC)c1` [compound 1138], the class under setting [2] was 3 (Class 3 The value of percent of control at 10^−7 M was more than 60% or the value of IC50 was more than 200 nM.). For `Cc1cccc(Cl)c1NC(=O)NC[C@H]1CC[C@@H](Nc2nccc(N(C)C)n2)CC1` [compound 2420, N-(2-chloro-6-methylphenyl)-N′-[(cis-4-{[4-(dimethylamino)pyrimidin-2-yl]amino}cyclohexyl)methyl]urea], the class (MCH receptor activity class 1-3 (percent of control at 10^-7 M or IC50)) was 1 (Class 1: The value of percent of control at 10^−7 M was less than 40% or the value of IC50 was less than 50 nM.). With `COc1cc(OC)cc(C(=O)N[C@H]2CC[C@@H](CNc3nc(C)cc(N(C)C)n3)CC2)c1` [compound 2736], under setting [1], the class was 3 (Class 3 The value of percent of control at 10^−7 M was more than 60% or the value of IC50 was more than 200 nM.). As for `CN(C)c1nc(N[C@H]2CC[C@@H](NC(=O)c3ccc(-c4cccc([N+](=O)[O-])c4)o3)CC2)nc2c1CCCC2` [compound 1039], the class under setting [2] is 2 (Class 2: The value of percent of control at 10^−7 M was from 40% to 60% or the value of IC′50 was from 50 nM to 200 nM.). With `CC(C)c1ccccc1NC(=O)N[C@H]1CC[C@@H](Nc2cc(N(C)C)c3ccccc3n2)CC1` [compound 2110], the class under setting [3] is reported as 3 (Class 3 The value of percent of control at 10^−7 M was more than 60% or the value of IC50 was more than 200 nM.). Take `CN(C)c1nc(N[C@H]2CC[C@@H](NC(=S)Nc3cc(Br)ccc3Br)CC2)nc2c1CCCC2` [compound 2033]: the class under setting [4] was 3 (Class 3 The value of percent of control at 10^−7 M was more than 60% or the value of IC50 was more than 200 nM.). Consider `CCN(CC)c1ccc(NC(=S)N[C@H]2CC[C@@H](Nc3nc4c(c(N(C)C)n3)CCCC4)CC2)cc1` [compound 2012], for which, under setting [4], the class was 3 (Class 3 The value of percent of control at 10^−7 M was more than 60% or the value of IC50 was more than 200 nM.). For the compound `Cc1cnc(N[C@H]2CC[C@@H](NC(=O)N(C)c3ccc(Cl)c(Cl)c3)CC2)nc1N(C)C` [compound 3022, N-(3,4-dichlorophenyl)-N′-(cis-4-{[4-(dimethylamino)-5-methylpyrimidin-2-yl]amino}cyclohexyl)-N-methylurea], the class under setting [1] is 1 (Class 1: The value of percent of control at 10^−7 M was less than 40% or the value of IC50 was less than 50 nM.). Regarding `COc1ccccc1C(=O)N[C@H]1CC[C@@H](Nc2nc(C)cc(N(C)C)n2)CC1` [compound 2955], the class under setting [1] is on record as 3 (Class 3 The value of percent of control at 10^−7 M was more than 60% or the value of IC50 was more than 200 nM.). In the case of `CN(C)c1ccnc(N[C@H]2CC[C@@H](NC(=O)Cc3ccccc3I)CC2)n1` [compound 820], under setting [3], the class is 3 (Class 3 The value of percent of control at 10^−7 M was more than 60% or the value of IC50 was more than 200 nM.). As to `Cc1nc(N[C@H]2CC[C@@H](NC(=O)C(O)c3cc(F)cc(F)c3)CC2)nc(N(C)C)c1C` (relative stereo) [compound 2829, 2-(3,5-difluorophenyl)-N-(cis-4-{[4-(dimethylamino)-5,6-dimethylpyrimidin-2-yl]amino}cyclohexyl)-2-hydroxyacetamide], the class under setting [1] is given as 2 (Class 2: The value of percent of control at 10^−7 M was from 40% to 60% or the value of IC′50 was from 50 nM to 200 nM.). Turning to `Cc1ccccc1CNC(=O)N[C@H]1CC[C@@H](Nc2nccc(N(C)C)n2)CC1` [compound 2236], the class under setting [3] is recorded as 3 (Class 3 The value of percent of control at 10^−7 M was more than 60% or the value of IC50 was more than 200 nM.).

In the case of `CN(C)c1nc(N[C@H]2CC[C@@H](CNCc3ccccc3OC(F)F)CC2)nc2c1CCCC2` [compound 1414], under setting [3], the class is 3 (Class 3 The value of percent of control at 10^−7 M was more than 60% or the value of IC50 was more than 200 nM.). Take `CN(C)c1ccnc(N[C@H]2CC[C@@H](NC(=O)c3csc4ccccc34)CC2)n1` [compound 309]: the class under setting [3] is reported as 3 (Class 3 The value of percent of control at 10^−7 M was more than 60% or the value of IC50 was more than 200 nM.).

On to `CN(C)c1ccnc(N[C@H]2CC[C@@H](NC(=O)C(Cc3ccccc3)c3ccccc3)CC2)n1` (relative stereo) [compound 817], for which the class under setting [3] is 3 (Class 3 The value of percent of control at 10^−7 M was more than 60% or the value of IC50 was more than 200 nM.). For the compound `CN(C)c1nc(N[C@H]2CC[C@@H](CNC(=O)c3cccc(Cl)c3)CC2)nc2c1CCCC2` [compound 586], the class under setting [5] is given as 3 (Class 3 The value of percent of control at 10^−7 M was more than 60% or the value of IC50 was more than 200 nM.). As for `C/C(=C\c1ccccc1)C(=O)NC[C@H]1CC[C@@H](Nc2nccc(N(C)C)n2)CC1` [compound 432], the class under setting [5] is recorded as 3 (Class 3 The value of percent of control at 10^−7 M was more than 60% or the value of IC50 was more than 200 nM.).

With `CN(C)c1cc(N[C@H]2CC[C@@H](NC(=O)c3ccc(C#N)cc3)CC2)nc2ccccc12` [compound 77], the class under setting [4] was 3 (Class 3 The value of percent of control at 10^−7 M was more than 60% or the value of IC50 was more than 200 nM.). With `CN(C)c1ccnc(N[C@H]2CC[C@@H](CNC(=O)c3c(F)cccc3C(F)(F)F)CC2)n1` [compound 448], under setting [5], the class is on record as 3 (Class 3 The value of percent of control at 10^−7 M was more than 60% or the value of IC50 was more than 200 nM.). For the compound `CN(C)c1nc(N[C@H]2CC[C@@H](NC(=S)Nc3c(Cl)cccc3Cl)CC2)nc2c1CCCC2` [compound 1938], the class under setting [4] is recorded as 3 (Class 3 The value of percent of control at 10^−7 M was more than 60% or the value of IC50 was more than 200 nM.).
